Results from patent publication US12077503B2, “Substituted cyclic amides and their use as herbicides” (FMC CORPORATION, priority 2015, dated 2024).
Read-outs that look alike come from different tables or passages of the source.

Legend:
Assay type in all cases: in vivo
[1] = tested on: pigweed (Amaranthus retroflexus); experiment: Test A preemergence; settings: Amaranthus retroflexus, pre-emergence, 240 h; for pest or weed control at 125 g/ha: 125 g ai/ha; for pest or weed control at 500 g/ha: 500 g ai/ha
[2] = tested on: ryegrass, Italian (Italian ryegrass, Lolium multiflorum); experiment: Test A postemergence; settings: Lolium multiflorum, post-emergence, 240 h; for pest or weed control at 125 g/ha: 125 g ai/ha
In short: (§1)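 Seeds sprayed preemergence with a directed soil spray, or plants at 2 to 10 cm height and one- to two-leaf stage sprayed postemergence, with test chemicals in a non-phytotoxic solvent mixture containing surfactant, in loam soil–sand blend. Injury rated visually against untreated controls after about 10 d in greenhouse, 0 (no effect) to 100 (complete control).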

[3] = tested on: Galium (catchweed bedstraw, Galium aparine); experiment: Test A postemergence; settings: Galium, post-emergence, 240 h; for pest or weed control at 125 g/ha: 125 g ai/ha
In short: as §1

[4] = tested on: giant foxtail (Setaria faberii); experiment: Test A postemergence; settings: Setaria faberi, post-emergence, 240 h; for pest or weed control at 125 g/ha: 125 g ai/ha
In short: as §1

[5] = tested on: wheat (Triticum aestivum); experiment: Test A postemergence; settings: Triticum aestivum, post-emergence, 240 h; for plant injury at 125 g/ha: 125 g ai/ha
In short: as §1

[6] = tested on: corn (Zea mays); experiment: Test A postemergence; settings: Zea mays, post-emergence, 240 h; for Corn plant response rating (crop injury, 0 = no effect, 100 = complete kill) at 125 g/ha: Postemergence, visual injury after approximately 10 d, 0 to 100 scale where 0 is no effect and 100 is complete control
In short: as §1

[7] = tested on: blackgrass (Alopecurus myosuroides); experiment: Test A postemergence; settings: Alopecurus myosuroides, post-emergence, 240 h; for pest or weed control at 125 g/ha: 125 g ai/ha
In short: as §1

[8] = tested on: ragweed (common ragweed, Ambrosia elatior); experiment: Test A postemergence; settings: Ambrosia artemisiifolia, post-emergence, 240 h; for pest or weed control at 125 g/ha: 125 g ai/ha
In short: as §1

[9] = tested on: pigweed (Amaranthus retroflexus); experiment: Test A postemergence; settings: Amaranthus retroflexus, post-emergence, 240 h; for pest or weed control at 125 g/ha: 125 g ai/ha
In short: as §1

[10] = tested on: barnyardgrass (Echinochloa crus-galli); experiment: Test A postemergence; settings: Echinochloa crus-galli, post-emergence, 240 h; for pest or weed control at 125 g/ha: 125 g ai/ha
In short: as §1

[11] = tested on: Kochia (Kochia scoparia); experiment: Test A postemergence; settings: Bassia scoparia, post-emergence, 240 h; for pest or weed control at 125 g/ha: 125 g ai/ha
In short: as §1

[12] = tested on: sedge, umbrella (small-flower umbrella sedge, Cyperus difformis); experiment: Test B flooded paddy test; settings: Cyperus difformis, 250 g ai/ha, Flood, read-out: Sedge, Umbrella plant response rating
In short: (§2)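 Greenhouse paddy pots with 2-leaf stage plants received compound by direct addition to floodwater 3 cm deep, kept at that level. Scored visually at 13–15 d versus controls (0 no effect; 100 complete control).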

[13] = tested on: rice (Oryra sativa); experiment: Test B flooded paddy test; settings: Oryza sativa, 250 g ai/ha, Flood, read-out: Rice plant response rating
In short: as §2

[14] = tested on: ducksalad (Heteranthera limosa); experiment: Test B flooded paddy test; settings: Heteranthera limosa, 250 g ai/ha, Flood, read-out: Ducksalad plant response rating
In short: as §2

[15] = tested on: barnyardgrass (Echinochloa crus-galli); experiment: Test B flooded paddy test; settings: Echinochloa crus-galli, 250 g ai/ha, Flood, read-out: Barnyardgrass plant response rating
In short: as §2

[16] = Preemergence, visual injury rating after approximately 10 d, read-out: Pigweed plant response rating (0 to 100 scale, 0 is no effect, 100 is complete control)
[17] = preemergence, visual injury rating about 10 d after treatment, 0 to 100 scale (0 no effect, 100 complete control), read-out: Pigweed plant response rating
[18] = Postemergence, visual injury after approximately 10 d, 0 to 100 scale where 0 is no effect and 100 is complete control, read-out: Plant response rating, Ryegrass, Italian
[19] = Postemergence, visual injury after approximately 10 d, 0 to 100 scale where 0 is no effect and 100 is complete control, read-out: Plant response rating, Galium
[20] = Postemergence, visual injury after approximately 10 d, 0 to 100 scale where 0 is no effect and 100 is complete control, read-out: Plant response rating, Foxtail, Giant
[21] = Postemergence, visual injury after approximately 10 d, 0 to 100 scale where 0 is no effect and 100 is complete control, read-out: Plant response rating, Wheat
[22] = Postemergence, visual injury after approximately 10 d, 0 to 100 scale where 0 is no effect and 100 is complete control, read-out: Plant response rating, Blackgrass
[23] = Postemergence, visual injury after approximately 10 d, 0 to 100 scale where 0 is no effect and 100 is complete control, read-out: Plant response rating, Ragweed
[24] = Postemergence, visual injury after approximately 10 d, 0 to 100 scale where 0 is no effect and 100 is complete control, read-out: Plant response rating, Pigweed
[25] = Postemergence, visual injury after approximately 10 d, 0 to 100 scale where 0 is no effect and 100 is complete control, read-out: Plant response rating, Barnyardgrass
[26] = Postemergence, visual injury after approximately 10 d, 0 to 100 scale where 0 is no effect and 100 is complete control, read-out: Plant response rating, Kochia
[27] = 0 to 100 scale where 0 is no effect and 100 is complete control
[28] = scale of 0 to 100 where 0 is no effect and 100 is complete control

Row | Compound | pest or weed control at 125 g/ha [1, 16] [%] | pest or weed control at 500 g/ha [1, 17] [%] | pest or weed control at 125 g/ha [2, 18] [%] | pest or weed control at 125 g/ha [3, 19] [%] | pest or weed control at 125 g/ha [4, 20] [%] | plant injury at 125 g/ha [5, 21] [%] | Corn plant response rating (crop injury, 0 = no effect, 100 = complete kill) at 125 g/ha ([6]; 125 g ai/ha) [%] | pest or weed control at 125 g/ha [7, 22] [%] | pest or weed control at 125 g/ha [8, 23] [%] | pest or weed control at 125 g/ha [9, 24] [%] | pest or weed control at 125 g/ha [10, 25] [%] | pest or weed control at 125 g/ha [11, 26] [%] | pest or weed control at 250 g/ha [12, 27] [%] | pest or weed control at 250 g/ha [13, 27] [%] | pest or weed control at 250 g/ha [14, 27] [%] | pest or weed control at 250 g/ha [15, 27] [%] | further results
1 | COc1ccc([C@H]2CN(C)C(=O)[C@@H]2C(=O)Nc2cccc(F)c2F)cc1F [Compound 1021] | 70 | 80 | 40 | 50 | 90 | 40 | 60 | 20 | 40 | 0 | 100 | 70 | 0 | 15 | 98 | 80 | pest or weed control at 500 g/ha ([2]; 500 g ai/ha, postemergence, visual injury, 0 to 100 scale (0 no effect, 100 complete control), approx. 10 d, read-out: Plant response rating, Ryegrass, Italian): 70%; pest or weed control at 500 g/ha ([3]; 500 g ai/ha, postemergence, visual injury, 0 to 100 scale (0 no effect, 100 complete control), approx. 10 d, read-out: Plant response rating, Galium): 70%; pest or weed control at 500 g/ha ([4]; 500 g ai/ha, postemergence, visual injury, 0 to 100 scale (0 no effect, 100 complete control), approx. 10 d, read-out: Plant response rating, Foxtail, Giant): 90%; plant injury at 500 g/ha ([5]; 500 g ai/ha, postemergence, visual injury, 0 to 100 scale (0 no effect, 100 complete control), approx. 10 d, read-out: Plant response rating, Wheat): 60%; Corn plant response rating (crop injury, 0 = no effect, 100 = complete kill) at 500 g/ha ([6]; 500 g ai/ha, postemergence, visual injury, 0 to 100 scale (0 no effect, 100 complete control), approx. 10 d): 80%; pest or weed control at 500 g/ha ([7]; 500 g ai/ha, postemergence, visual injury, 0 to 100 scale (0 no effect, 100 complete control), approx. 10 d, read-out: Plant response rating, Blackgrass): 50%; pest or weed control at 500 g/ha ([8]; 500 g ai/ha, postemergence, visual injury, 0 to 100 scale (0 no effect, 100 complete control), approx. 10 d, read-out: Plant response rating, Ragweed): 60%; pest or weed control at 500 g/ha ([9]; 500 g ai/ha, postemergence, visual injury, 0 to 100 scale (0 no effect, 100 complete control), approx. 10 d, read-out: Plant response rating, Pigweed): 50%; pest or weed control at 500 g/ha ([10]; 500 g ai/ha, postemergence, visual injury, 0 to 100 scale (0 no effect, 100 complete control), approx. 10 d, read-out: Plant response rating, Barnyardgrass): 100%; pest or weed control at 500 g/ha ([11]; 500 g ai/ha, postemergence, visual injury, 0 to 100 scale (0 no effect, 100 complete control), approx. 10 d, read-out: Plant response rating, Kochia): 70%
2 | CN1CC[C@H](c2ccc(OC(F)(F)F)cc2)[C@@H](C(=O)Nc2cccc(F)c2F)C1=O [Compound 999] | 0 | 50 | 0 | 0 | 40 | 0 | 0 | 0 | 0 | 0 | 100 | 40 | 0 | 0 | 85 | 0 | –
3 | CN1C[C@H](c2cccc(COC(F)F)c2)[C@@H](C(=O)Nc2cccc(F)c2F)C1=O [Compound 873] | – | – | – | – | – | – | – | – | – | – | – | – | – | – | – | – | pest or weed control at 125 g/ha ([1]; preemergence, 0 to 100 scale where 0 is no effect and 100 is complete control, read-out: Pigweed plant response rating): 40%; pest or weed control at 500 g/ha ([1]; Preemergence, visual injury vs untreated controls after approximately 10 d, read-out: Pigweed plant response rating (0 to 100 scale where 0 is no effect and 100 is complete control)): 50%; pest or weed control at 125 g/ha ([2]; postemergence, visual injury rating after approximately 10 d, read-out: Ryegrass, Italian plant response rating (0 to 100 scale, 0 no effect, 100 complete control)): 40%; pest or weed control at 125 g/ha ([3]; postemergence, visual injury rating after approximately 10 d, read-out: Galium plant response rating (0 to 100 scale, 0 no effect, 100 complete control)): 50%; pest or weed control at 125 g/ha ([4]; postemergence, visual injury rating after approximately 10 d, read-out: Foxtail, Giant plant response rating (0 to 100 scale, 0 no effect, 100 complete control)): 90%; plant injury at 125 g/ha ([5]; postemergence, visual injury rating after approximately 10 d, read-out: Wheat plant response rating (0 to 100 scale, 0 no effect, 100 complete control)): 30%; plant injury at 125 g/ha ([6]; 125 g ai/ha, postemergence, visual injury rating after approximately 10 d, read-out: Corn plant response rating (0 to 100 scale, 0 no effect, 100 complete control)): 70%; pest or weed control at 125 g/ha ([7]; postemergence, visual injury rating after approximately 10 d, read-out: Blackgrass plant response rating (0 to 100 scale, 0 no effect, 100 complete control)): 50%; pest or weed control at 125 g/ha ([8]; postemergence, visual injury rating after approximately 10 d, read-out: Ragweed plant response rating (0 to 100 scale, 0 no effect, 100 complete control)): 30%; pest or weed control at 125 g/ha ([9]; postemergence, visual injury rating after approximately 10 d, read-out: Pigweed plant response rating (0 to 100 scale, 0 no effect, 100 complete control)): 30%; pest or weed control at 125 g/ha ([10]; postemergence, visual injury rating after approximately 10 d, read-out: Barnyardgrass plant response rating (0 to 100 scale, 0 no effect, 100 complete control)): 90%; pest or weed control at 125 g/ha ([11]; postemergence, visual injury rating after approximately 10 d, read-out: Kochia plant response rating (0 to 100 scale, 0 no effect, 100 complete control)): 60%; pest or weed control at 250 g/ha [12, 28]: 50%; pest or weed control at 250 g/ha [13, 28]: 0%; pest or weed control at 250 g/ha [14, 28]: 100%; pest or weed control at 250 g/ha [15, 28]: 85%
